Test results from PMC10215302 (Antibiotics, 2023).
Values after ≈ are worked out from the molar mass of the structure shown. Read-outs that look alike come from different tables or passages of the source.

Key:
[1] = tested on: S. aureus SA0736; assay: microbe, parasite or virus in culture; details: Staphylococcus aureus
[2] = tested on: S. aureus SA0085; assay: microbe, parasite or virus in culture; details: Staphylococcus aureus
[3] = tested on: S. aureus RN4220; assay: microbe, parasite or virus in culture; details: Staphylococcus aureus, RN4220, read-out: MIC values
[4] = tested on: S. aureus ATCC 29213; assay: microbe, parasite or virus in culture; details: Staphylococcus aureus
[5] = tested on: S. aureus SA0422; assay: microbe, parasite or virus in culture; details: Staphylococcus aureus
[6] = tested on: S. aureus SA0077; assay: microbe, parasite or virus in culture; details: Staphylococcus aureus
[7] = tested on: S. aureus RN4220; details: Table S1: RN4220 ∆ (strain with deletion in SACOL1927)
[8] = tested on: S. aureus SA0085; details: SA0085, after 40 passages in antibiotic-free media (SCCmec excision)
[9] = SA0736, read-out: MIC values, Table S1: SA0736 DAP-Y (40 passages on daptomycin, yellow colonies)
[10] = SA0736, read-out: MIC values, Table S1: SA0736 VAN (derivative after 40 passages on vancomycin)
[11] = SA0085, read-out: MIC values, Table S1: SA0085 Abf (passages on antibiotic-free media)
[12] = SA0085, read-out: MIC values, Table S1: SA0085 VAN (derivative after 40 passages on vancomycin)
[13] = ATCC29213, read-out: MIC values
[14] = ATCC29213, read-out: MIC values, Table S1: ATCC 29213 DAP (derivative after 40 passages on daptomycin)
[15] = SA0422, read-out: MIC values, Table S1: SA0422 DAP (derivative after 40 passages on daptomycin)
[16] = SA0422, read-out: MIC values, Table S1: SA0422 VAN (derivative after 40 passages on vancomycin)
[17] = SA0077, read-out: MIC values, Table S1: SA0077 DAP (derivative after 40 passages on daptomycin)
[18] = SA0077, read-out: MIC values, Table S1: SA0077 Abf (passages on antibiotic-free media)
[19] = SA0077, read-out: MIC values, Table S1: SA0077 VAN (derivative after 40 passages on vancomycin)

CCO/N=C(\C(=O)N[C@@H]1C(=O)N2C(C(=O)[O-])=C(Sc3nc(-c4cc[n+](C)cc4)cs3)CS[C@H]12)c1nsc(N)n1 [Ceftaroline]
MIC ([1]; SA0736, read-out: MIC values): 1 µg/mL (≈ 1.65 µM)
MIC ([1]; SA0736, read-out: MIC values, Table S1: SA0736 DAP-W (40 passages on daptomycin, white colonies)): 0.5 µg/mL (≈ 0.827 µM)
MIC [1, 9]: 0.5 µg/mL (≈ 0.827 µM)
MIC [1, 10]: 0.5 µg/mL (≈ 0.827 µM)
MIC ([2]; SA0085, read-out: MIC values): 1 µg/mL (≈ 1.65 µM)
MIC [2, 11]: 0.5 µg/mL (≈ 0.827 µM)
MIC [2, 12]: 0.125 µg/mL (≈ 0.207 µM)
MIC [3]: 0.5 µg/mL (≈ 0.827 µM)
MIC [4, 13]: 0.125 µg/mL (≈ 0.207 µM)
MIC [4, 14]: 0.25 µg/mL (≈ 0.413 µM)
MIC ([5]; SA0422, read-out: MIC values): 2 µg/mL (≈ 3.31 µM)
MIC [5, 15]: 0.5 µg/mL (≈ 0.827 µM)
MIC [5, 16]: 1 µg/mL (≈ 1.65 µM)
MIC ([6]; SA0077, read-out: MIC values): 1 µg/mL (≈ 1.65 µM)
MIC [6, 17]: 0.5 µg/mL (≈ 0.827 µM)
MIC values [7]: 0.5 µg/mL (≈ 0.827 µM)

CO[C@@]1(NC(=O)Cc2cccs2)C(=O)N2C(C(=O)O)=C(COC(N)=O)CS[C@@H]21 [Cefoxitin]
MIC ([1]; SA0736, read-out: MIC values): 64 µg/mL (≈ 150 µM)
MIC [1, 9]: 8 µg/mL (≈ 18.7 µM)
MIC [1, 10]: 128 µg/mL (≈ 299 µM)
MIC ([2]; SA0085, read-out: MIC values): 256 µg/mL (≈ 599 µM)
MIC [2, 11]: 4 µg/mL (≈ 9.36 µM)
MIC [2, 12]: 4 µg/mL (≈ 9.36 µM)
MIC [3]: 4 µg/mL (≈ 9.36 µM)
MIC [4, 13]: 4 µg/mL (≈ 9.36 µM)
MIC [4, 14]: 2 µg/mL (≈ 4.68 µM)
MIC ([5]; SA0422, read-out: MIC values): 256 µg/mL (≈ 599 µM)
MIC [5, 15]: 64 µg/mL (≈ 150 µM)
MIC ([6]; SA0077, read-out: MIC values): 256 µg/mL (≈ 599 µM)
MIC [6, 18]: 64 µg/mL (≈ 150 µM)
MIC [6, 17]: 128 µg/mL (≈ 299 µM)
MIC [6, 19]: 128 µg/mL (≈ 299 µM)
MIC values [7]: 4 µg/mL (≈ 9.36 µM)

Cc1onc(-c2ccccc2)c1C(=O)N[C@@H]1C(=O)N2[C@@H]1SC(C)(C)[C@@H]2C(=O)O [Oxacillin]
MIC ([1]; SA0736, read-out: MIC values): 64 µg/mL (≈ 159 µM)
MIC [1, 9]: 16 µg/mL (≈ 39.9 µM)
MIC ([2]; SA0085, read-out: MIC before passaging, SA0085, before passaging in antibiotic-free media): 512 µg/mL (≈ 1280 µM)
MIC ([2]; SA0085, read-out: MIC values): 256 µg/mL (≈ 638 µM)
MIC [2, 11]: 1 µg/mL (≈ 2.49 µM)
MIC [2, 12]: 32 µg/mL (≈ 79.7 µM)
MIC [3]: < 0.5 µg/mL
MIC after 40 passages in antibiotic-free media [8]: 1 µg/mL (≈ 2.49 µM)
MIC [4, 13]: < 0.5 µg/mL
MIC ([5]; SA0422, read-out: MIC values): 512 µg/mL (≈ 1280 µM)
MIC [5, 15]: 2 µg/mL (≈ 4.98 µM)
MIC [5, 16]: 256 µg/mL (≈ 638 µM)
MIC ([6]; SA0077, read-out: MIC values): 512 µg/mL (≈ 1280 µM)
MIC [6, 18]: 128 µg/mL (≈ 319 µM)
MIC [6, 17]: 256 µg/mL (≈ 638 µM)
MIC [6, 19]: 32 µg/mL (≈ 79.7 µM)
MIC values [7]: < 0.5 µg/mL
